Test results taken from patent US20260223850A1, “SUBSTITUTED PYRROLIDONE COMPOUND, PREPARATION METHOD THEREFOR, COMPOSITION AND APPLICATION THEREOF” (QINGDAO KINGAGROOT CHEMICAL COMPOUND CO., LTD., priority 2023, published 2026).

Experiments:
Assay type in all cases: in vivo
Echinochloa crusgalli = assay: Seedling stage sealing experiment for water-seeding; conditions: 120 g a.i./ha, 15 days, fresh weight control rate
Digitaria sanguinalis = assay: as above; conditions: 120 g a.i./ha, 15 days, fresh weight control rate
How it was run: (§1)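 Seeds sown on soil in pots kept moist in water-filled boxes, then sprayed with acetone/water compound solution at 120, 60, 30 and 15 g a.i./ha, in triplicate. Effect scored after 15 days in greenhouse as 0–9 levels of fresh-weight growth control, averaged.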

Echinochloa phyllopogon = assay: as above; conditions: 120 g a.i./ha, 15 days, fresh weight control rate
How it was run: as §1

Huaidao (rice cultivar) = assay: Seedling stage sealing experiment for water-seeding (crop safety); conditions: 120 g a.i./ha, seedling stage sealing, 15 days, fresh weight control rate
How it was run: as §1

Leptochloa chinensis = assay: Seedling stage sealing experiment for water-seeding; conditions: 120 g a.i./ha, 15 days, fresh weight control rate
How it was run: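 Seeds sown in soil-filled bowls kept moist in water-filled boxes; compound in acetone diluted with water and spray-applied at 120, 60, 30 and 15 g a.i./ha, triplicate. After 15 days in greenhouse, fresh-weight growth control scored on a 0–9 scale (9 = dead, 0 = no effect), averaged.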

[1] = spray, seedling stage sealing for water-seeding

Row | SMILES | Echinochloa crusgalli activity level (growth control rate) (Echinochloa crusgalli; seedling stage sealing) | Digitaria sanguinalis activity level (growth control rate) (Digitaria sanguinalis; seedling stage sealing) | Echinochloa phyllopogon activity level (growth control rate) (Echinochloa phyllopogon; seedling stage sealing) | Echinochloa crusgalli activity level (growth control rate) (Echinochloa crusgalli; [1]) | Digitaria sanguinalis activity level (growth control rate) (Digitaria sanguinalis; [1]) | Echinochloa phyllopogon activity level (growth control rate) (Echinochloa phyllopogon; [1]) | Huaidao (rice cultivar) plant damage level (Huaidao (rice cultivar)) | Leptochloa chinensis activity level (growth control rate) (Leptochloa chinensis)
1 | C=CCOc1cccc(C2CN(C)C(=O)C2C(=O)Nc2cnn(C)c2Cl)c1 (stereo not drawn) [Compound 30] | 9 | 9 | 9 | – | – | – | – | –
2 | CN1CC(c2cccc(C(F)(F)F)c2)C(C(=O)Nc2cnn(C(F)F)c2)C1=O (stereo not drawn) [Compound 159] | 7 (Level 7: growth control rate greater than or equal to 80% and less than 90%) | 9 | 6 (Level 6: growth control rate greater than or equal to 70% and less than 80%) | – | – | – | – | –
3 | COCn1ncc(NC(=O)[C@H]2C(=O)N(C)C[C@@H]2c2cc(C)cc(C)c2)c1C1CC1 [549′] | – | – | – | 9 | 9 | 9 | – | –
4 | CN1CC(c2ccccc2)C(C(=O)Nc2cnn(C)c2Cl)C1=O (stereo not drawn) [Compound 121] | 9 | – | 9 | – | – | – | 0 | 6 (Level 6: growth control rate greater than or equal to 70% and less than 80%)
5 | CCc1c(NC(=O)[C@H]2C(=O)N(C)C[C@@H]2c2cc(C)cc(C)c2)cnn1C(F)F [544′] | – | – | – | 9 | 9 | 9 | – | –
6 | COc1cccc([C@H]2CN(C)C(=O)[C@@H]2C(=O)Nc2cnn(C)c2Cl)c1 [28′] | 8 (Level 8: growth control rate greater than or equal to 90% and less than 100%) | – | 6 (Level 6: growth control rate greater than or equal to 70% and less than 80%) | – | – | – | – | 9
7 | C=CCc1cccc(C2CN(C)C(=O)C2C(=O)Nc2cnn(C)c2Cl)c1 (stereo not drawn) [Compound 24] | 9 | – | 8 (Level 8: growth control rate greater than or equal to 90% and less than 100%) | – | – | – | – | 9
8 | CN1C[C@H](c2cccc(C(F)F)c2)[C@@H](C(=O)Nc2cnn(C)c2Cl)C1=O [154′] | 9 | – | 8 (Level 8: growth control rate greater than or equal to 90% and less than 100%) | – | – | – | – | 9
9 | COc1cc(Cl)cc([C@H]2CN(C)C(=O)[C@@H]2C(=O)Nc2cnn(C)c2Cl)c1 [297′] | 9 | – | 6 (Level 6: growth control rate greater than or equal to 70% and less than 80%) | – | – | – | – | 9
10 | CN1C[C@H](c2cccc(Br)c2)[C@@H](C(=O)Nc2cnn(C)c2Cl)C1=O [126′] | 9 | – | 9 | – | – | – | – | 9
11 | COc1cc([C@H]2CN(C)C(=O)[C@@H]2C(=O)Nc2cnn(C)c2Cl)cc(C(F)(F)F)c1 [75′] | 9 | – | 6 (Level 6: growth control rate greater than or equal to 70% and less than 80%) | – | – | – | – | 9
12 | CN1C[C@H](c2cccc(OC(F)(F)F)c2)[C@@H](C(=O)Nc2cnn(C)c2Cl)C1=O [33′] | 9 | – | 8 (Level 8: growth control rate greater than or equal to 90% and less than 100%) | – | – | – | – | 9
13 | CCc1c(NC(=O)[C@H]2C(=O)N(C)C[C@@H]2c2cccc(C)c2)cnn1C [135′] | 9 | – | 7 (Level 7: growth control rate greater than or equal to 80% and less than 90%) | – | – | – | – | 9
14 | CN1C[C@H](c2cccc(C(F)(F)F)c2)[C@@H](C(=O)Nc2cnn(CCF)c2Cl)C1=O [98′] | 9 | – | 9 | – | – | – | – | 9
15 | Cc1cccc([C@H]2CN(C)C(=O)[C@@H]2C(=O)Nc2cnn(C)c2Cl)c1 [17′] | 9 | – | 6 (Level 6: growth control rate greater than or equal to 70% and less than 80%) | – | – | – | 0 | 9
16 | Cc1cccc([C@H]2CN(C)C(=O)[C@@H]2C(=O)Nc2c(O)nn(C)c2F)c1 [147′] | 9 | – | 8 (Level 8: growth control rate greater than or equal to 90% and less than 100%) | – | – | – | – | 9
17 | Cc1cc(Br)cc([C@H]2CN(C)C(=O)[C@@H]2C(=O)Nc2cnn(C)c2Cl)c1 [265′] | 9 | – | 9 | – | – | – | – | 9
18 | Cc1cccc([C@H]2CN(C)C(=O)[C@@H]2C(=O)Nc2cnn(CC(F)(F)F)c2Cl)c1 [129′] | 9 | – | 8 (Level 8: growth control rate greater than or equal to 90% and less than 100%) | – | – | – | – | 9
19 | CN1CC(c2cc(F)cc(F)c2)C(C(=O)Nc2cnn(C)c2Cl)C1=O (stereo not drawn) [Compound 115] | 9 | – | 6 (Level 6: growth control rate greater than or equal to 70% and less than 80%) | – | – | – | – | 6 (Level 6: growth control rate greater than or equal to 70% and less than 80%)
20 | CN1C[C@H](c2cccc(C(F)(F)F)c2)[C@@H](C(=O)Nc2cnn(CC(F)(F)F)c2Cl)C1=O [161′] | 9 | – | 8 (Level 8: growth control rate greater than or equal to 90% and less than 100%) | – | – | – | – | 9
21 | CN1CC(c2ccc(F)c(C(F)(F)F)c2)C(C(=O)Nc2cnn(C)c2Cl)C1=O (stereo not drawn) [Compound 54] | 9 | – | 9 | – | – | – | 0 | 9
22 | CN1C[C@H](c2cc(F)cc(C(F)(F)F)c2)[C@@H](C(=O)Nc2cnn(C)c2C2CC2)C1=O [293′] | 9 | – | 9 | – | – | – | – | 9
23 | CC(C)n1ncc(NC(=O)[C@H]2C(=O)N(C)C[C@@H]2c2cccc(C(F)(F)F)c2)c1C1CC1 [197′] | 8 (Level 8: growth control rate greater than or equal to 90% and less than 100%) | – | 6 (Level 6: growth control rate greater than or equal to 70% and less than 80%) | – | – | – | – | 9
24 | Cc1cc(C)cc([C@H]2CN(C)C(=O)[C@@H]2C(=O)Nc2cnn(C(F)F)c2Cl)c1 [269′] | 9 | – | 9 | – | – | – | – | 9
25 | CN1C[C@H](c2ccc3ccccc3c2)[C@@H](C(=O)Nc2cnn(C)c2Cl)C1=O [353′] | 9 | – | 7 (Level 7: growth control rate greater than or equal to 80% and less than 90%) | – | – | – | – | 9
26 | CN1C[C@H](c2cccc(C(F)(F)F)c2)[C@@H](C(=O)Nc2c(O)nn(C)c2F)C1=O [212′] | 9 | – | 9 | – | – | – | – | 9
27 | C=Cc1c(NC(=O)[C@H]2C(=O)N(C)C[C@@H]2c2cc(C)cc(C)c2)cnn1C [275′] | 9 | – | 9 | – | – | – | – | 9
28 | CN1C[C@H](c2cccc(OC(F)(F)F)c2)[C@@H](C(=O)Nc2c(O)nn(C)c2F)C1=O [229′] | 9 | – | 9 | – | – | – | – | 9
